ChEMBL document CHEMBL1201862, “PubChem BioAssay data set” (2004)
Active and inactive are the calls of the source.

How the values were obtained:
[1] = tested on: MDA-MB-435; experiment: cells; format: functional, cell-based; conditions: Homo sapiens
[2] = cells; format: functional, cell-based; conditions: PPC-1
[3] = biological target: Beta-2 adrenergic receptor (Homo sapiens, UniProt P07550); experiment: beta2AR agonists driving receptor internalization, dose response, cell-based, FAP fluorogen, flow cytometry, cherry pick 1 (AID 588763); format: functional
[4] = biological target: Melanin-concentrating hormone receptor 1 (Homo sapiens, UniProt Q99705); experiment: Late-stage fluorescence-based counterscreen for antagonists of the G-protein coupled receptor 7 (GPR7): cell-based dose response assay to identify antagonists of the melanin-concentrating hormone receptor 1 (MCHR1). [Related pubchem assays (depositor defined):AID1861, AID1880, AID1952, AID2148, AID2251, AID2257, AID485339]; format: functional;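 note: stimulated with 30 nM MCH peptide agonist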
[5] = biological target: T1, Neuropeptides B/W receptor type 1 (Homo sapiens, UniProt P48145); experiment: GPR7 antagonist potency, late-stage follow-up, cell-based, fluorescence, dose response (AID 463251); format: functional
T1 sequence (P48145 whole entry): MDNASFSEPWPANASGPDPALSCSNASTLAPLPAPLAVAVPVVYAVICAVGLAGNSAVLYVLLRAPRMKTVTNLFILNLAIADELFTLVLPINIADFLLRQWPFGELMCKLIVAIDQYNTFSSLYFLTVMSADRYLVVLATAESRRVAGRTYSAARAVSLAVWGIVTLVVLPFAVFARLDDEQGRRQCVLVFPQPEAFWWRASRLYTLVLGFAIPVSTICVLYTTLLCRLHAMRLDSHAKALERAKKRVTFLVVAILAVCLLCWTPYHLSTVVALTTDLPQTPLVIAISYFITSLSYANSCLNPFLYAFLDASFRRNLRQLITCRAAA

[6] = biological target: Cyclin-dependent kinase 5/CDK5 activator 1 (Homo sapiens, UniProt Q00535); experiment: CDK5/p35 kinase inhibitors, dose response, biochemical, cherry-picked samples, set 2 (AID 504545)
[7] = biological target: G-protein coupled receptor 35 (Homo sapiens, UniProt Q9HC97); experiment: GPR35 antagonists blocking zaprinast-driven arrestin recruitment, primary screen, imaging, U2OS, beta-arrestin-GFP, zaprinast agonist (AID 2058); format: functional;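 note: antagonist potency meaning inhibition of agonist-induced arrestin redistribution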
[8] = Counterscreen for IDE inhibitors: Luminescence-based cell-based high throughput dose response assay to identify compounds that are cytotoxic to HEK cells. [Related pubchem assays: 434962 (Primary screen (IDE inhibitors in singlicate)), 449730 (Counterscreen (Cytotoxicity in triplicate)), 435028 (Confirmation (IDE inhibitors in triplicate)) …; format: functional; conditions: HEK293
[9] = biological target: T2, Insulin-degrading enzyme (Homo sapiens, UniProt P14735); experiment: Dose Response: Fluorescence polarization-based cell-based high throughput dose response assay for inhibitors of insulin-degrading enzyme (IDE). [Related pubchem assays: 434962 (Primary screen (IDE inhibitors in singlicate)), 449730 (Counterscreen (Cytotoxicity in triplicate)), 435028 (Confirmation (IDE inhibitors in triplicate)), 434984 (Summary …; format: functional
T2 sequence (P14735 whole entry): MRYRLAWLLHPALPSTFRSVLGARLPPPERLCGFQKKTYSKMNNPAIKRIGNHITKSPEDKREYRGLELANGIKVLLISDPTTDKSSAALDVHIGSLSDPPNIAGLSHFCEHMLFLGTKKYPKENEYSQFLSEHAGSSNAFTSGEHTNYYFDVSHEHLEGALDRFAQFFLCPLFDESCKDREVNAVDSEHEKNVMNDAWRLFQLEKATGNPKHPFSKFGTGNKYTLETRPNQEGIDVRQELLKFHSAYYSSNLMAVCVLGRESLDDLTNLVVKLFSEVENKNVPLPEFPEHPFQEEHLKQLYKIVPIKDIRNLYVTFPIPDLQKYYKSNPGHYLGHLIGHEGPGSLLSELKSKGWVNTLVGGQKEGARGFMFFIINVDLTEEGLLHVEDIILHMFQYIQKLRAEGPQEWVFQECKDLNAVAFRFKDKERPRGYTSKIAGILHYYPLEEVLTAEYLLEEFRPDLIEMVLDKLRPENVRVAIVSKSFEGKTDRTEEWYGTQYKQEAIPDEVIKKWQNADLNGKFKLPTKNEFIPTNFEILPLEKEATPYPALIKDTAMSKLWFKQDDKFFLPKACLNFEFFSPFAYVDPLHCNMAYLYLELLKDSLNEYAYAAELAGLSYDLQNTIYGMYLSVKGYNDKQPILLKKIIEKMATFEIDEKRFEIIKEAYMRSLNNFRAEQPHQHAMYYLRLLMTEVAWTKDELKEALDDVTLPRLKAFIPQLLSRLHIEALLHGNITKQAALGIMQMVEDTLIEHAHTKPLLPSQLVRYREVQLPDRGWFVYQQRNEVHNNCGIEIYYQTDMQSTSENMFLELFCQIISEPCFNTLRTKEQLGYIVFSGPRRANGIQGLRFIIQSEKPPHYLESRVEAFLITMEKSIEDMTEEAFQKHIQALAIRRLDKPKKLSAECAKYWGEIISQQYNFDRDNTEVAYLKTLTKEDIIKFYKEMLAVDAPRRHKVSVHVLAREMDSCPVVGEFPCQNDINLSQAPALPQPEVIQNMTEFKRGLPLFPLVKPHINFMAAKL

[10] = enhancers of respiration in Yfh1-depleted yeast, dose response, Friedreich's ataxia, plus single-dose screen (AID 1465); format: functional;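 note: yeast depleted of Yfh1p frataxin homolog grown on glycerol needing respiration; WST-1 tetrazolium dye reduction as measure of cellular dehydrogenase metabolic activity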
[11] = A High Throughput Confirmatory Assay used to Identify Novel Compounds that Inhibit Mycobacterium Tuberculosis in the absence of Glycerol.; format: functional
[12] = microbe, parasite or virus in culture; format: functional; conditions: Mycobacterium tuberculosis
[13] = THP-1 cell cytotoxicity, dose response, cytotoxicity control for non-replicating M. tuberculosis project (AID 489025); format: functional
[14] = HepG2 cell cytotoxicity, dose response, cytotoxicity control for non-replicating M. tuberculosis project (AID 489018); format: functional; conditions: Mycobacterium tuberculosis
[15] = cells; format: functional
[16] = Luminescence Cell-Based Dose Response HTS to Identify Activators of Luciferase Translation or Activity in H4 […] Cells. [Related pubchem assays: 1829 (Project Summary), 1814 (Primary HTS)]; format: functional
[17] = tested on: H4; experiment: Luminescence Cell-Based Dose Response HTS to Identify Activators of 5'UTR Stem-Loop Driven Prion Protein mRNA Translation in H4 Neuroglioblastoma Cells. [Related pubchem assays: 1829 (Project Summary), 1814 (Primary HTS)]; format: functional; conditions: Homo sapiens
[18] = tested on: J774.A1; experiment: Confirmation of image-based Screening Assay for Inhibitors of Phagocytosis. [Related pubchem assays (depositor defined):AID1029, AID1643]; format: functional, cell-based; conditions: Mus musculus
[19] = cytotoxicity in HEK-293T cells, dose response, cytotoxicity control for TCR NF-kB inhibitor project, luminescence, T-cell screen hits (AID 489026); format: functional, cell-based;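 note: cells exposed to compound about 14 hours before the viability readout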
[20] = biological target: T3, Tyrosine-protein phosphatase non-receptor type 7 (Homo sapiens, UniProt P35236); format: functional
T3 sequence (P35236 whole entry): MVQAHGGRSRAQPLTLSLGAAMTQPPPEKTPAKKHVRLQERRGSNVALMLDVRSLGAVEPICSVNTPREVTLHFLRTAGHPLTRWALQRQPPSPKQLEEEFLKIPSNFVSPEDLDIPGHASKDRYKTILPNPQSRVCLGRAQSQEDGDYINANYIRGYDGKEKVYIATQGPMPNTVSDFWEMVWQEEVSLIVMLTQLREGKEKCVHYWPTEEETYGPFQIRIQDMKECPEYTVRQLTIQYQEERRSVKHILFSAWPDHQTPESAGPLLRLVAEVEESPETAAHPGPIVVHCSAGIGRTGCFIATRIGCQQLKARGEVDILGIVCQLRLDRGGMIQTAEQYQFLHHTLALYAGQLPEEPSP

[21] = biological target: Glyceraldehyde-3-phosphate dehydrogenase (Homo sapiens, UniProt P04406)
[22] = biological target: Heat shock cognate 71 kDa protein (Homo sapiens, UniProt P11142); experiment: In Vitro Hsc70 Dose Response Fluorescence Polarization Assay. [Related pubchem assays: 1072 ]
[23] = biological target: Heat shock 70 kDa protein 1A (Homo sapiens, UniProt P0DMV8); experiment: Hsp70 inhibitors, SAR follow-up, biochemical, fluorescence polarization (AID 1072)
[24] = biological target: T4, Dual specificity protein phosphatase 6 (Rattus norvegicus, UniProt Q64346)
T4 sequence (Q64346 whole entry): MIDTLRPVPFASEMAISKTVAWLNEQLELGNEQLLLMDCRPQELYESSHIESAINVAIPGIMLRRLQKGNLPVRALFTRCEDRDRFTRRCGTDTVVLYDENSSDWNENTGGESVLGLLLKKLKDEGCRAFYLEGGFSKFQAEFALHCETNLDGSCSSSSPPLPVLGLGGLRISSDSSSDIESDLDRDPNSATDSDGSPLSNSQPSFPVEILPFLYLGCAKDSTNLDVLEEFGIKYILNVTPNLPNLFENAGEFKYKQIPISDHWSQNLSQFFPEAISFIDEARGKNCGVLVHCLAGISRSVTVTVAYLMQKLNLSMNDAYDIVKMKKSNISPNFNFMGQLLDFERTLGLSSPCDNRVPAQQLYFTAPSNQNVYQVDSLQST

[25] = biological target: T4, Dual specificity protein phosphatase 6; format: functional
[26] = biological target: T5, Caspase-3 (Homo sapiens, UniProt P42574); experiment: procaspase-3 activation potency of dual hits, dose response, counter-screen for dual procaspase-3/7 activator project, biochemical, absorbance, PC-3 D3A mutant (AID 504328)
T5 sequence (P42574 whole entry): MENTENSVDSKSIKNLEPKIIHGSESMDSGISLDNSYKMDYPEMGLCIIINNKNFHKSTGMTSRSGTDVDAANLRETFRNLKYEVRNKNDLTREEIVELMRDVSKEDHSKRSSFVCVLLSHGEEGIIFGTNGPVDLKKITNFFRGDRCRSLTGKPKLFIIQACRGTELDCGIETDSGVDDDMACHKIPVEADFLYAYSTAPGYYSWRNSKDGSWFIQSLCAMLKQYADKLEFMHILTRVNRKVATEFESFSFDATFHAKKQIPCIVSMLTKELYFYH

[27] = biological target: Caspase-7 (Homo sapiens, UniProt P55210); experiment: procaspase-7 activators, dose response, dual procaspase-3/-7 activator project, biochemical, absorbance, human (AID 504330)
[28] = biological target: Mu-type opioid receptor (Homo sapiens, UniProt P35372); experiment: SAR Analysis of Antagonists of the MOR Receptor using an Image-Based Assay - Set 3. [Related pubchem assays (depositor defined):AID1777, AID1785, AID1786, AID1966, AID2133, AID2136, AID2284, AID2285, AID2420]; format: functional
[29] = biological target: T6, Kappa-type opioid receptor (Homo sapiens, UniProt P41145); experiment: SAR analysis of small molecule antagonists of the kappa opioid receptor via a luminescent beta-arrestin assay - Set 6. [Related pubchem assays (depositor defined):AID1777, AID1778, AID1785, AID1786, AID1966, AID2133, AID2136, AID2285]; format: functional
[30] = biological target: T6, Kappa-type opioid receptor; experiment: SAR analysis of small molecule antagonists of the kappa opioid receptor via a luminescent beta-arrestin assay - Set 4. [Related pubchem assays (depositor defined):AID1777, AID1778, AID1785, AID1786, AID1966, AID2133, AID2136, AID2285]; format: functional
[31] = biological target: Delta-type opioid receptor (Homo sapiens, UniProt P41143); experiment: SAR Analysis of Antagonists of the DOR Receptor using an Image-Based Assay - Set 3. [Related pubchem assays (depositor defined):AID1777, AID1785]; format: functional;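 note: U2OS cells expressing DOR1 and beta-arrestin GFP stimulated with 100 nM SNC80; imaging of GFP-tagged beta-arrestin moving into spots after receptor activation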
[32] = biological target: T6, Kappa-type opioid receptor; experiment: SAR analysis of Antagonists of the Kappa Opioid Receptor (KOR) using an Image-Based Assay - Set 4. [Related pubchem assays (depositor defined):AID1777, AID1785]; format: functional
[33] = biological target: Eukaryotic translation initiation factor 4H (Homo sapiens, UniProt Q15056); experiment: eIF4H inhibition in translation initiation, SAR follow-up (AID 435011); format: functional
[34] = biological target: Polyadenylate-binding protein 1 (Homo sapiens, UniProt P11940); experiment: PABP inhibition in translation initiation, SAR follow-up (AID 435018); format: functional
Polyadenylate-binding protein 1, sequence (P11940 whole entry): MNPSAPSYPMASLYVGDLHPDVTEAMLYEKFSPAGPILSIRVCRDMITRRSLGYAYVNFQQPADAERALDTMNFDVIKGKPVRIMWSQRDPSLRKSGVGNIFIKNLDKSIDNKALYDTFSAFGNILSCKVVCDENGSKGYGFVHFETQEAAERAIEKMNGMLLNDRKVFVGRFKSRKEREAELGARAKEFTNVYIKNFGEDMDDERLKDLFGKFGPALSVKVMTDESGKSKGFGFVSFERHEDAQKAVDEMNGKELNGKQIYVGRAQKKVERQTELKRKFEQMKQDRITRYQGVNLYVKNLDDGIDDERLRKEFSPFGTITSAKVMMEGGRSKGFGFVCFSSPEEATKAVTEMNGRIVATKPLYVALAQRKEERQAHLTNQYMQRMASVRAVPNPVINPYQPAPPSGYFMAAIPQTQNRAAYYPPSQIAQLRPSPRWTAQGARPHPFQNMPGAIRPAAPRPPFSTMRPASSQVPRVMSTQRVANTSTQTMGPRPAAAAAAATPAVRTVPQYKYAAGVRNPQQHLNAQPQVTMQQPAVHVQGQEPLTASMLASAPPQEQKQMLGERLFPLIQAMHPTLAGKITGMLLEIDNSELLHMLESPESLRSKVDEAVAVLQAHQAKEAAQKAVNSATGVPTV

T6 sequence (P41145 whole entry): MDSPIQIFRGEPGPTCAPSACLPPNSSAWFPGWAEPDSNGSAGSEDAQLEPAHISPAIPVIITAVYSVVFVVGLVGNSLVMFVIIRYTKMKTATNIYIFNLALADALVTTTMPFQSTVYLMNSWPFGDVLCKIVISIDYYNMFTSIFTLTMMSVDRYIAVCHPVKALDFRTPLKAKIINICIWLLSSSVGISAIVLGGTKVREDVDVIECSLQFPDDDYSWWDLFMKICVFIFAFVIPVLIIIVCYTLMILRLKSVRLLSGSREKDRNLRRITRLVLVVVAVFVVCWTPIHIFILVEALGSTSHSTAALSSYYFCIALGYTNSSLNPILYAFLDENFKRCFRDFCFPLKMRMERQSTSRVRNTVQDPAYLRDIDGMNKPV
Glyceraldehyde-3-phosphate dehydrogenase, sequence (P04406 whole entry): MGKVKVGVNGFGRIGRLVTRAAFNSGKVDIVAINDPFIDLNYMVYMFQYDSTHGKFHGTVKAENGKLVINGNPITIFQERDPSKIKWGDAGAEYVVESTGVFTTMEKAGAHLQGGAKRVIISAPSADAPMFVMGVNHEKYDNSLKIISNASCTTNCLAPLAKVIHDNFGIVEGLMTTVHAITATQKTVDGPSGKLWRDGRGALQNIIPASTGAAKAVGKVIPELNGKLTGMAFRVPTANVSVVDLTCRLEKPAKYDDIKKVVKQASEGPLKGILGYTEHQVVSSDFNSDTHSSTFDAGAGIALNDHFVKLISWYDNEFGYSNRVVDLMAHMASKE
Cyclin-dependent kinase 5/CDK5 activator 1, sequence (Q00535 whole entry): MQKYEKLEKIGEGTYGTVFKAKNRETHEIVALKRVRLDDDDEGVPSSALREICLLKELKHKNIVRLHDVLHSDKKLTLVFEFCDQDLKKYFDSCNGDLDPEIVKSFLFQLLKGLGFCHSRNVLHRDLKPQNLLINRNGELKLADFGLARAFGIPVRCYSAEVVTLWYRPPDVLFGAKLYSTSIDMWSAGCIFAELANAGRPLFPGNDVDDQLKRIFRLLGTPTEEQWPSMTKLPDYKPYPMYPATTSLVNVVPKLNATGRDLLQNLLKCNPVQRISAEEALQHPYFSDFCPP
Cyclin-dependent kinase 5/CDK5 activator 1, sequence (Q15078 whole entry, further chain): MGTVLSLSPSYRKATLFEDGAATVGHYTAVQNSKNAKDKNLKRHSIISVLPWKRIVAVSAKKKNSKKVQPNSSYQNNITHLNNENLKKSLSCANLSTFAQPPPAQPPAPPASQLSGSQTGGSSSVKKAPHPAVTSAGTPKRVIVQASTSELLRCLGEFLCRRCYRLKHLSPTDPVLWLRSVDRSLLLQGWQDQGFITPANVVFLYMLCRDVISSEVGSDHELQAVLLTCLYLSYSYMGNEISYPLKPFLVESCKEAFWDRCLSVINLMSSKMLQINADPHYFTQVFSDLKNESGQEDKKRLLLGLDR
Heat shock cognate 71 kDa protein, sequence (P11142 whole entry): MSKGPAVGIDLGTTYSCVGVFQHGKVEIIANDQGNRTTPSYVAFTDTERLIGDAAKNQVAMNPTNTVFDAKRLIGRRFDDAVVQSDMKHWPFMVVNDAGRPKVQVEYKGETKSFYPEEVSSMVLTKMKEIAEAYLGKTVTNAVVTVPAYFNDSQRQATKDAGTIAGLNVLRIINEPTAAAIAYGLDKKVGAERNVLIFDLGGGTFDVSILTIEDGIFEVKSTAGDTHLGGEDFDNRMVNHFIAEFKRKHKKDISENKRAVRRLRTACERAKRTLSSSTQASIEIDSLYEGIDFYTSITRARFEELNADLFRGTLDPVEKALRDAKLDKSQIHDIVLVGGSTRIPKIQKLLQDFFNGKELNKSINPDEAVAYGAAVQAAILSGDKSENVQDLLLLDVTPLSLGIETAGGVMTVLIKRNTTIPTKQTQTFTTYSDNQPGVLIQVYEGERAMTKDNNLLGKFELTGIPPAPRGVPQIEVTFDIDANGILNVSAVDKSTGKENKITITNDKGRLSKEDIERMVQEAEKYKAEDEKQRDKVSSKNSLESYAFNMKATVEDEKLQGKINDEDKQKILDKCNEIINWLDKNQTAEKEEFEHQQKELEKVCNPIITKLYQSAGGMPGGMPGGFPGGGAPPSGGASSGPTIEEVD
G-protein coupled receptor 35, sequence (Q9HC97 whole entry): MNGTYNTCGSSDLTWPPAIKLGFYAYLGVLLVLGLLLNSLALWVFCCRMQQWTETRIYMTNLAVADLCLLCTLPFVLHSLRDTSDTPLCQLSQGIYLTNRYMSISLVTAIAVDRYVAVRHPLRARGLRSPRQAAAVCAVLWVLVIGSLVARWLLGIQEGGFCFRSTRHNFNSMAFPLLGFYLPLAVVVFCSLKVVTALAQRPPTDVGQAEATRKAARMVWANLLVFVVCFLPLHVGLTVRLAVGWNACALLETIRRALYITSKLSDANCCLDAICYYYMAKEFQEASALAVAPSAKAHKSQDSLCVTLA
Heat shock 70 kDa protein 1A, sequence (P0DMV8 whole entry): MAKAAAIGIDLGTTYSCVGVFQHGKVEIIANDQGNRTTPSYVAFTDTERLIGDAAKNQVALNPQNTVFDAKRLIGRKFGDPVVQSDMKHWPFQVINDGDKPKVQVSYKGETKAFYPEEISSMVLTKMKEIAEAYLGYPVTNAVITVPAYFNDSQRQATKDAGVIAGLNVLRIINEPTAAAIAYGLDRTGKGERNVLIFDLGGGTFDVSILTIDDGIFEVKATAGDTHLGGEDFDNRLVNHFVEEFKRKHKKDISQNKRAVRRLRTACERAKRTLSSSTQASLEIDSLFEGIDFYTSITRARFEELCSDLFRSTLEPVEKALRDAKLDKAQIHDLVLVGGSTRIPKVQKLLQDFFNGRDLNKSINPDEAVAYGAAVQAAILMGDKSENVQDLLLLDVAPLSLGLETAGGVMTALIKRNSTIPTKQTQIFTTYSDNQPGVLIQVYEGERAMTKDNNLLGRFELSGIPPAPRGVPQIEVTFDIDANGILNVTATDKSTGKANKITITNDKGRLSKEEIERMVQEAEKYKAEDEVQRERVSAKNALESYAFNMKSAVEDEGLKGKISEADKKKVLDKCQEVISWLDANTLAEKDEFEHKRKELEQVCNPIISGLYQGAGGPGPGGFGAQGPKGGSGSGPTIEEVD
Melanin-concentrating hormone receptor 1, sequence (Q99705 whole entry): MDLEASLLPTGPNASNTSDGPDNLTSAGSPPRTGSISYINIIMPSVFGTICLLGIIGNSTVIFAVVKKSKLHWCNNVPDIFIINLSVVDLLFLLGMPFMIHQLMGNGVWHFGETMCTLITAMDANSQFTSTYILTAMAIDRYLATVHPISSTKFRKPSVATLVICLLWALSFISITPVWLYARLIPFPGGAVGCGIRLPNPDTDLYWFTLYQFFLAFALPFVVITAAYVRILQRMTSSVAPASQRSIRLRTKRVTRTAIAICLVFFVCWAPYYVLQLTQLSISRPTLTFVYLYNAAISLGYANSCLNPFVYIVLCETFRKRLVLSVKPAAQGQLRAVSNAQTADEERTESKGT
Beta-2 adrenergic receptor, sequence (P07550 whole entry): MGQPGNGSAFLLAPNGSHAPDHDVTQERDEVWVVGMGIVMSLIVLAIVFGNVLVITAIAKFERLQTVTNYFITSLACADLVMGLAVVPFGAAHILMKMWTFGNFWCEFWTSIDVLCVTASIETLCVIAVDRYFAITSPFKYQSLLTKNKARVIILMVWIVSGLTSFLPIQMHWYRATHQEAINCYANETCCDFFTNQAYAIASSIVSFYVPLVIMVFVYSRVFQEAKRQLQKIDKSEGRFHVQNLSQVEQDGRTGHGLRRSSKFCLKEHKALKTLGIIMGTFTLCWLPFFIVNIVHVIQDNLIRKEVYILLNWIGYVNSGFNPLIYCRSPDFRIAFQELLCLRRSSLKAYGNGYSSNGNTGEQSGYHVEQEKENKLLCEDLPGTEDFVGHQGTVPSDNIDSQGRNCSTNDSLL
Delta-type opioid receptor, sequence (P41143 whole entry): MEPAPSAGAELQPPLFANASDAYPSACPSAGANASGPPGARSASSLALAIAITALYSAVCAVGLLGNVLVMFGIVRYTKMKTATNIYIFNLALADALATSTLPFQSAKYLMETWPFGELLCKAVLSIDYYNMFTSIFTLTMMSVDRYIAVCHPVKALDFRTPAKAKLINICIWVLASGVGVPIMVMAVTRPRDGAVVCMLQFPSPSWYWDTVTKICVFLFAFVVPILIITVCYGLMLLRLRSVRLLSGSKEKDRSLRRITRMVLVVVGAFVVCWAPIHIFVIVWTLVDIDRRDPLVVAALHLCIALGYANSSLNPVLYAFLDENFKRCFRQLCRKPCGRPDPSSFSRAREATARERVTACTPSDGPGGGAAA

Structure (SMILES): CC(Sc1nc(-c2ccccc2)cc(C(F)(F)F)n1)C(=O)N1CCCC1 (centres undefined)
- IC50 [1]: > 10 µM (inactive)
- IC50 [2]: > 10 µM (inactive)
- EC50 [3]: 0.243 µM (active)

Structure (SMILES): Cc1ccc(-n2ncc(Cl)c(Oc3ccc(F)cc3C)c2=O)cc1
- IC50 [4]: 17 µM (inactive)
- IC50 [5]: 10 µM (active)

Structure (SMILES): CC(C)Oc1ccc(NC(=O)Oc2ccccc2)cc1
- AC50 [6]: 129 µM (active)

Structure (SMILES): N#C/C(=C\c1ccc(N2CCCCC2)o1)C(N)=O
- IC50 [7]: 6.55 µM (active)
- IC50 [8]: > 55.7 µM (not active)
- IC50 [9]: 8.72 µM (active)
- EC50 [10]: > 100 µM (active)

Structure (SMILES): CSc1ccc(NC(=O)Nc2cccn(Cc3ccccc3)c2=O)cc1
- IC50 [11]: > 100 µM (active)
- CC50 [12]: > 40 µM (active)
- CC50 [13]: > 40 µM (active)
- CC50 [14]: > 20 µM (active)
- IC50 [15]: 11.4 µM (active)

Structure (SMILES): Cc1cc(=O)oc2cc(OCC3CC(c4ccccc4Cl)=NO3)ccc12 (centres undefined)
- EC50 [16]: 11.7 µM (active)
- EC50 [17]: > 120 µM (not active)
- IC50 [18]: > 25 µM (inactive)
- IC50 [19]: > 80 µM (inactive)

Structure (SMILES): O=C(O)c1ccc2c(c1)C1C=CCC1C(C(=O)O)N2 (centres undefined)
- IC50 [20]: 2.51 µM (active)
- IC50 [21]: > 100 µM (not active)
- IC50 [22]: > 100 µM (not active)
- IC50 [23]: 2.42 µM (active)
- IC50 [24]: 17.8 µM (active)
- IC50 [25]: 15.5 µM (active)

Structure (SMILES): COc1ccc(C(=O)N/N=C/c2ccc3cccc(OCc4ccccc4)c3n2)cc1
- EC50 [26]: > 85.3 µM (inactive)
- EC50 [27]: > 85.3 µM (inactive)

Structure (SMILES): CC(C)N(CCNC(=O)c1ccc(CNS(=O)(=O)c2ccc(C3CCCCC3)cc2)cc1)Cc1ccccc1
- IC50 [28]: 2.47 µM (active)
- IC50 [29]: > 20 µM (inactive)
- IC50 [30]: > 20 µM (inactive)
- IC50 [31]: > 32 µM (inactive)
- IC50 [32]: 1.22 µM (active)

Structure (SMILES): COc1cccc(/C=C2/NC(=O)N(CC(=O)Nc3ccc(C)cc3)C2=O)c1OCc1cccc(C(=O)O)c1
- IC50 [33]: 10.6 µM (active)
- IC50 [34]: > 100 µM (inactive)
